This note sets out measurements from US20250129078A1, “ERBB2 INHIBITORS” (Cogent Biosciences, Inc., priority 2023, published 2025).

One may read the IC50 as the concentration that gives 50% inhibition.

Structures are written as SMILES. Where a name gives a salt, the structure may show the parent alone.

One test has as its target EGFR WT (Homo sapiens (Human), UniProt P00533). In words: ErbB enzyme assay (CisBio HTRF-KinEASE-TK), EGFR WT. The test is classed as biochemical. Particulars: ATP at Km (25 μM), 1 h incubation. The essentials:
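Compounds, serially diluted three-fold, were incubated with enzyme for 1 h at ambient temperature. Detection reagents were then added for a further hour, and the 655/620 nm HTRF ratio was normalised to uninhibited and pre-quenched controls. IC50 was fitted with a four-parameter logistic model.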
For orientation: Time-resolved FRET reads energy transfer from a long-lived donor to a nearby acceptor.

The target of the next test is ErbB2 V777L (Homo sapiens (Human), UniProt P04626, V777L). Kind of test: ErbB enzyme assay (CisBio HTRF-KinEASE-TK), ErbB2 V777L. In kind it is biochemical. An outline of the steps:
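HTRF KinEASE-TK tyrosine-kinase read-out of substrate phosphorylation after a final 1 h at ambient temperature, from the 655/620 nm emission ratio.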

EGFR WT, sequence (P00533 25-1210): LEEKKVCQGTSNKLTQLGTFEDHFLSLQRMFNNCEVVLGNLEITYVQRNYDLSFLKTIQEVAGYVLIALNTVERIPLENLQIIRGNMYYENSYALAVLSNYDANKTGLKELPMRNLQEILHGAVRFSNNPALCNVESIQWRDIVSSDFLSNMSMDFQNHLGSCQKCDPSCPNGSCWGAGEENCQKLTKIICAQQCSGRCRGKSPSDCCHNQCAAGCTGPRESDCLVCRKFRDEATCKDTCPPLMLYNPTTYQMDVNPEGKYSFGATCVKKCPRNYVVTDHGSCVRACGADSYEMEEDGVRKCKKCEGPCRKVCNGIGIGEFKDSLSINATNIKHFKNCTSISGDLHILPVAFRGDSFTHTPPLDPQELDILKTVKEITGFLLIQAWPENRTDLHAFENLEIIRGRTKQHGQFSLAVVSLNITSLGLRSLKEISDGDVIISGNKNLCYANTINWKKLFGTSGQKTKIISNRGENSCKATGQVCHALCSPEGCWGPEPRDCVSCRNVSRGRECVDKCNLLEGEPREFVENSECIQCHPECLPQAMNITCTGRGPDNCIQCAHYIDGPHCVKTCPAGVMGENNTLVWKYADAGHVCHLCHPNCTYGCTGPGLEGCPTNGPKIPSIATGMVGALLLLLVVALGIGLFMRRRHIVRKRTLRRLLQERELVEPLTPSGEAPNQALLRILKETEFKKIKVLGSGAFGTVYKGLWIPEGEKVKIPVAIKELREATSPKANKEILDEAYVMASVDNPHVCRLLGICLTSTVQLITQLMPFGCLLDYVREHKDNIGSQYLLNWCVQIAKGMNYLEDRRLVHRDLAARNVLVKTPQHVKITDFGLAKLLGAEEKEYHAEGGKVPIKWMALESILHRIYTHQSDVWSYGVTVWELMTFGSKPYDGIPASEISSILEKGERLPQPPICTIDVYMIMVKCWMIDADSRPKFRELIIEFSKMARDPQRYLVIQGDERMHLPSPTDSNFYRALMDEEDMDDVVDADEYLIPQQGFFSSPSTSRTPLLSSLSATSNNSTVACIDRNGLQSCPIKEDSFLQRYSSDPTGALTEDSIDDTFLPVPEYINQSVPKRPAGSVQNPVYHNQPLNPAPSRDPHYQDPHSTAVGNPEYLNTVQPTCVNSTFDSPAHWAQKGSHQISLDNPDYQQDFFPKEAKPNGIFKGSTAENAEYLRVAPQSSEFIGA
ErbB2 V777L, sequence (P04626 23-1255 V777L): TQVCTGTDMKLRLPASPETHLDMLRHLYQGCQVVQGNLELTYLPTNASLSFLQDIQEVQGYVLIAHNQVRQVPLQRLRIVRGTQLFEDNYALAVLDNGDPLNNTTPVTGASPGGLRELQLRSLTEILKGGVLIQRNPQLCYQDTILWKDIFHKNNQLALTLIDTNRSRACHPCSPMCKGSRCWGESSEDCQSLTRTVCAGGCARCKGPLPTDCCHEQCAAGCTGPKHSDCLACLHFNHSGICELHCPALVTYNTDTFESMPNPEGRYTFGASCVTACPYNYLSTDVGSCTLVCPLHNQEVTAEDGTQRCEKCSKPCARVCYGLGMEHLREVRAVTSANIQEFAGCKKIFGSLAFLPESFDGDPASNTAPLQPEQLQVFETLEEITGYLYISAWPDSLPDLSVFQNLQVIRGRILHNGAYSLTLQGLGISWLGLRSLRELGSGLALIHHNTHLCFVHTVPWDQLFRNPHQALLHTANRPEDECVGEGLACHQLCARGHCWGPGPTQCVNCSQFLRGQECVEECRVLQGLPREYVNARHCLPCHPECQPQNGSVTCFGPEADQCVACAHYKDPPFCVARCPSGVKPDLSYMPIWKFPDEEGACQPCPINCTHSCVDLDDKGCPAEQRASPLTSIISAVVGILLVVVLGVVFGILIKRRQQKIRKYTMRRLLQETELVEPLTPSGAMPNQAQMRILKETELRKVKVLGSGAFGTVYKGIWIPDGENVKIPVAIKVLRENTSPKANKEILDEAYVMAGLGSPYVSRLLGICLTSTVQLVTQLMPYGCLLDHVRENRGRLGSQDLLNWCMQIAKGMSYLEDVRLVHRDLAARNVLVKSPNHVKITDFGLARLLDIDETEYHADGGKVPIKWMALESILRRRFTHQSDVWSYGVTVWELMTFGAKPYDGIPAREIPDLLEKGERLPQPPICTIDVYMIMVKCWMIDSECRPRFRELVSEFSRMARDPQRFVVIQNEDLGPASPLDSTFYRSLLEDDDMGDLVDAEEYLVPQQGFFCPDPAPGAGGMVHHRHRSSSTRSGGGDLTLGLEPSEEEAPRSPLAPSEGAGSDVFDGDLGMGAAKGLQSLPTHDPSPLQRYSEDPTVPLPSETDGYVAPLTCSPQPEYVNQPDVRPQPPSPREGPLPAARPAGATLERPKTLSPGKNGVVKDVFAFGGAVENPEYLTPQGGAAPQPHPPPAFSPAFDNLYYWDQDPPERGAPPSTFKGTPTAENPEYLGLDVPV

As to `C=CC(=O)N1CCN(c2ncc3ncnc(Nc4c(OC)cc(Oc5ccc6c(c5)nnn6C)c(C)c4F)c3n2)CC1` [Compound 138, 1-(4-(8-((2-fluoro-6-methoxy-3-methyl-4-((1-methyl-1H-benzo[d][1,2,3]triazol-5-yl)oxy)phenyl)amino)pyrimido[5,4-d]pyrimidin-2-yl)piperazin-1-yl)prop-2-en-1-one], the IC50 at EGFR WT and against ErbB2 V777L was 100 to 500 nM in each case.
`C=CC(=O)N1C[C@@H](C)N(c2ncc3ncnc(Nc4ccc(Oc5ccc6c(c5)nnn6C)c(C)c4)c3n2)C[C@@H]1C` [Compound 188, 1-((2S,5R)-2,5-dimethyl-4-(8-((3-methyl-4-((1-methyl-1H-benzo[d][1,2,3]triazol-5-yl)oxy)phenyl)amino)pyrimido[5,4-d]pyrimidin-2-yl)piperazin-1-yl)prop-2-en-1-one]: the results for the 50% inhibitory concentration (IC50) against EGFR WT and on ErbB2 V777L were at least 1000 nM and 500 to 1000 nM, respectively.
Consider `Cc1c(Oc2ccc3c(c2)nnn3C)ccc(Nc2ncnc3cnc(N4CCN(C(=O)/C=C/CN5CC(F)C5)CC4)nc23)c1F` [Compound 59, (E)-1-(4-(8-((2-fluoro-3-methyl-4-((1-methyl-1H-benzo[d][1,2,3]triazol-5-yl)oxy)phenyl)amino)pyrimido [5,4-d]pyrimidin-2-yl)piperazin-1-yl)-4-(3-fluoroazetidin-1-yl)but-2-en-1-one], for which the IC50 at EGFR WT and on ErbB2 V777L was 100 to 500 nM in each case.
On to `C=CC(=O)N1CCCC(c2ccc3ncnc(Nc4ccc(Oc5ccc6c(c5)nnn6C)c(C)c4)c3n2)C1` (centres unmarked) [Compound 398, 1-(3-(4-((3-methyl-4-((1-methyl-1H-benzo[d][1,2,3]triazol-5-yl)oxy)phenyl)amino)pyrido[3,2-d]pyrimidin-6-yl)piperidin-1-yl)prop-2-en-1-one], for which the IC50 at EGFR WT fell in the range of 100 to 500 nM; against ErbB2 V777L it was 50 to 100 nM.
With `C=CC(=O)N1CCN(c2ccc3ncnc(Nc4cc(C)c(Oc5ccc6c(c5)nnn6C)cc4OC(F)(F)F)c3n2)CC1(C)C` [Compound 306, 1-(2,2-dimethyl-4-(4-((5-methyl-4-((1-methyl-1H-benzo[d][1,2,3]triazol-5-yl)oxy)-2-(trifluoromethoxy)phenyl)amino)py-rido[3,2-d]pyrimidin-6-yl)piperazin-1-yl)prop-2-en-1-one], the IC50 against EGFR WT and against ErbB2 V777L was 100 to 500 nM in each case.
As for `C=CC(=O)N1CCCN(c2ccc3ncnc(Nc4ccc(Oc5ccc6c(c5)nnn6C)c(C)c4)c3n2)C[C@@H]1C` [Compound 284, (S)-1-(2-methyl-4-(4-((3-methyl-4-((1-methyl-1H-benzo[d][1,2,3]triazol-5-yl)oxy)phenyl)amino)pyrido[3,2-d]pyrimidin-6-yl)-1,4-diazepan-1-yl)prop-2-en-1-one], the figures for the IC50 against EGFR WT and on ErbB2 V777L were at least 1000 nM and 500 to 1000 nM, respectively.
For `C=CC(=O)N1CCN(c2ncc3ncnc(Nc4ccc(Oc5ccc6c(c5)nnn6C)cc4F)c3n2)CC1` [Compound 22, 1-(4-(8-((2-fluoro-4-((1-methyl-1H-benzo[d][1,2,3]triazol-5-yl)oxy)phenyl)amino)pyrimido[5,4-d]pyrimidin-2-yl)piperazin-1-yl)prop-2-en-1-one], the IC50 on EGFR WT and at ErbB2 V777L was 100 to 500 nM in each case.
Consider `C=CC(=O)N[C@]1(C)CCN(c2ccc3ncnc(Nc4ccc(Oc5ccc6c(c5)nnn6C)c(C)c4F)c3n2)C1` [Compound 270, (R)-N-(1-(4-((2-fluoro-3-methyl-4-((1-methyl-1H-benzo[d][1,2,3]triazol-5-yl)oxy)phenyl)amino)pyrido[3,2-d]pyrimidin-6-yl)-3-methylpyrrolidin-3-yl)acrylamide], for which the IC50 against EGFR WT was in the range of 100 to 500 nM; against ErbB2 V777L it was 50 to 100 nM.
In the case of `C=CC(=O)N1C2C=C(c3ccc4ncnc(Nc5ccc(Oc6ccc7c(c6)nnn7C)c(C)c5F)c4n3)CC1CCC2` (centres unmarked) [Compound 414, 1-(3-(4-((2-fluoro-3-methyl-4-((1-methyl-1H-benzo[d][1,2,3]triazol-5-yl)oxy)phenyl)amino)pyrido[3,2-d]pyrimidin-6-yl)-9-azabicyclo[3.3.1]non-2-en-9-yl)prop-2-en-1-one], the IC50 at EGFR WT and on ErbB2 V777L was 500 to 1000 nM throughout.
Regarding `C=CC(=O)N1CC[C@H](N(C)c2ccc3ncnc(Nc4ccc(Oc5ccc6c(c5)nnn6C)c(C)c4)c3n2)[C@@H]1C` [Compound 265, 1-((2S,3S)-2-methyl-3-(methyl(4-((3-methyl-4-((1-methyl-1H-benzo[d][1,2,3]triazol-5-yl)oxy)phenyl)amino)pyrido[3,2-d]pyrimidin-6-yl)amino)pyrrolidin-1-yl)prop-2-en-1-one], the IC50 on EGFR WT and against ErbB2 V777L was 100 to 500 nM each time.
In the case of `C=CC(=O)NC1CCN(c2ncc3ncnc(Nc4ccc(Oc5ccc6c(c5)nnn6C)c(C)c4)c3n2)CC1` [Compound 123, N-(1-(8-((3-methyl-4-((1-methyl-1H-benzo[d][1,2,3]triazol-5-yl)oxy)phenyl)amino)pyrimido[5,4-d]pyrimidin-2-yl)piperidin-4-yl)acrylamide], the IC50 at EGFR WT and against ErbB2 V777L was 100 to 500 nM each time.
In the case of `Cc1cc(Nc2ncnc3cnc(N4CCN(C(=O)/C=C/CN5CCOCC5)CC4)nc23)ccc1Oc1ccc2c(c1)nnn2C` [Compound 53, (E)-1-(4-(8-((3-methyl-4-((1-methyl-1H-benzo[d][1,2,3]triazol-5-yl)oxy)phenyl)amino)pyrimido [5,4-d]pyrimidin-2-yl)piperazin-1-yl)-4-morpholinobut-2-en-1-one formate], the IC50 against EGFR WT and against ErbB2 V777L was 100 to 500 nM in each case.
As to `C=CC(=O)N1CCN(c2ccc3ncnc(Nc4ccc(Oc5ccc6c(c5)nnn6C)c(C)c4F)c3n2)C[C@H]1C` [Compound 246, (R)-1-(4-(4-((2-fluoro-3-methyl-4-((1-methyl-1H-benzo[d][1,2,3]triazol-5-yl)oxy)phenyl)amino)pyrido[3,2-d]pyrimidin-6-yl)-2-methylpiperazin-1-yl)prop-2-en-1-one], the IC50 against EGFR WT lay in the range of 100 to 500 nM; against ErbB2 V777L, 50 to 100 nM.
For `C=CC(=O)N1CCN(c2ccc3ncnc(Nc4cc(F)c(Oc5ccc6c(c5)nnn6C)c(C)c4F)c3n2)C[C@H]1C` [Compound 326, (R)-1-(4-(4-((2,5-difluoro-3-methyl-4-((1-methyl-1H-benzo[d][1,2,3]triazol-5-yl)oxy)phenyl)amino)pyrido[3,2-d]pyrimidin-6-yl)-2-methylpiperazin-1-yl)prop-2-en-1-one], in that order: 100 to 500 nM and 50 to 100 nM.
For `C=CC(=O)N1CCN(c2ncc3ncnc(Nc4ccc(Oc5ccc6c(c5)nnn6C)c(C)c4)c3n2)C[C@@H]1CC` [Compound 115, (S)-1-(2-ethyl-4-(8-((3-methyl-4-((1-methyl-1H-benzo[d][1,2,3]triazol-5-yl)oxy)phenyl)amino)pyrimido[5,4-d]pyrimidin-2-yl)piperazin-1-yl)prop-2-en-1-one], in that order: at least 1000 nM and 500 to 1000 nM.
For `C=CC(=O)N1[C@@H]2COC[C@H]1CN(c1ncc3ncnc(Nc4ccc(Oc5ccc6c(c5)nnn6C)c(C)c4)c3n1)C2` [Compound 140, 1-((1R,5S)-7-(8-((3-methyl-4-((1-methyl-1H-benzo[d][1,2,3]triazol-5-yl)oxy)phenyl)amino)pyrimido [5,4-d]pyrimidin-2-yl)-3-oxa-7,9-diazabicyclo[3.3.1]nonan-9-yl)prop-2-en-1-one] the same measures were 100 to 500 nM and 50 to 100 nM.
For the molecule `C=CC(=O)N1CC2C(C1)N2c1ncc2ncnc(Nc3ccc(Oc4ccc5c(c4)nnn5C)c(C)c3)c2n1` (centres unmarked) [Compound 242, 1-(6-(8-((3-methyl-4-((1-methyl-1H-benzo[d][1,2,3]triazol-5-yl)oxy)phenyl)amino)pyrimido[5,4-d]pyrimidin-2-yl)-3,6-diazabicyclo[3.1.0]hexan-3-yl)prop-2-en-1-one], the IC50 was in the range of 100 to 500 nM against EGFR WT and 500 to 1000 nM against ErbB2 V777L.
With `C=CC(=O)N1CCN(c2ncc3ncnc(Nc4cc(C)c(Oc5ccc6c(c5)nnn6C)cc4F)c3n2)CC1` [Compound 6, 1-(4-(8-((2-fluoro-5-methyl-4-((1-methyl-1H-benzo[d][1,2,3]triazol-5-yl)oxy)phenyl)amino)pyrimido [5,4-d]pyrimidin-2-yl)piperazin-1-yl)prop-2-en-1-one], the IC50 on EGFR WT and at ErbB2 V777L was 100 to 500 nM in each case.
For the molecule `C=CC(=O)N1CCN(c2nc3c(Nc4ccc(Oc5ccc6c(c5)nnn6C)c(C)c4)ncnc3cc2C)CC1` [Compound 374, 1-(4-(7-methyl-4-((3-methyl-4-((1-methyl-H-benzo[d][1,2,3]triazol-5-yl)oxy)phenyl)amino)pyrido[3,2-d]pyrimidin-6-yl)piperazin-1-yl)prop-2-en-1-one], the IC50 lay in the range of 500 to 1000 nM at EGFR WT and 100 to 500 nM at ErbB2 V777L.
For `C=CC(=O)N1CCN(c2ccc3ncnc(Nc4ccc(Oc5cc6ncn(C)c6nc5C)c(C)c4)c3n2)C[C@H]1C` [Compound 247, (R)-1-(4-(4-((4-((3,5-dimethyl-3H-imidazo[4,5-b]pyridin-6-yl)oxy)-3-methylphenyl)amino)pyrido[3,2-d]pyrimidin-6-yl)-2-methylpiperazin-1-yl)prop-2-en-1-one] the same measures were 500 to 1000 nM and 50 to 100 nM.
On to `C=CC(=O)N1C[C@H]2C[C@@H]1CN(c1ncc3ncnc(Nc4ccc(Oc5cc(F)c6c(c5)ncn6C)c(C)c4F)c3n1)C2` [Compound 167, 1-((1S,5R)-3-(8-((2-fluoro-4-((7-fluoro-1-methyl-1H-benzo[d]imidazol-5-y1)oxy)-3-methylphenyl)amino)pyrimido[5,4-d]pyrimidin-2-yl)-3,6-diazabicyclo[3.2.1]octan-6-yl)prop-2-en-1-one], for which the half-maximal inhibitory concentration (IC50) was below 50 nM against EGFR WT and 100 to 500 nM at ErbB2 V777L.
For `C=CC(=O)N1C[C@@H](C)N(c2ncc3ncnc(Nc4ccc(Oc5ccc6c(c5)nnn6C)c(C)c4)c3n2)C[C@H]1C` [Compound 186, 1-((2R,5R)-2,5-dimethyl-4-(8-((3-methyl-4-((1-methyl-1H-benzo[d][1,2,3]triazol-5-yl)oxy)phenyl)amino)pyrimido[5,4-d]pyrimidin-2-yl)piperazin-1-yl)prop-2-en-1-one] the same measures were at least 1000 nM and 100 to 500 nM.
